Results: ChEMBL document CHEMBL4725353, “Discovery of Pyrido[2,3-b]indole Derivatives with Gram-Negative Activity Targeting Both DNA Gyrase and Topoisomerase IV” (J Med Chem, 2020)
Converted amounts (≈) assume the structure as drawn.

How the values were obtained:
physchem [1] = assay: physchem
Description: Ionization constant (acid), pKa of the compound by photometric titration assay

Escherichia coli [2] = assay: microbe, parasite or virus in culture; settings: ATCC 29213
Description: Antibacterial activity against Escherichia coli ATCC 29213 assessed as reduction in microbial growth preincubated for 20 to 24 hrs followed by subculture in absence of compound and measured on day 4 CLSI based broth microdilution susceptibility method

Escherichia coli [3] = assay: microbe, parasite or virus in culture; settings: ATCC 25922
Description: Antibacterial activity against Escherichia coli ATCC 25922 assessed as reduction in microbial growth preincubated for 20 to 24 hrs followed by subculture in absence of compound and measured on day 4 CLSI based broth microdilution susceptibility method

in vitro = settings: mouse, liver microsomes
Description: Intrinsic clearance in mouse liver microsomes preincubated for 10 mins followed by NADPH regenerating system addition and measured up to 30 mins by LC/MS-MS analysis

physchem [4] = settings: PBS, pH 6.5
Description: Solubility of compound in PBS at pH 6.5 incubated for over night by HPLC-UV based lyophilization solubility assay

[5] = Distribution coefficient between octanol and buffer, log D of the compound in pH 7.4 buffer by CAMDIS assay; assay type: physicochemical

Structure (SMILES) | pKa (physchem [1]) | MIC (Escherichia coli [2]) [µg/mL] | MIC (Escherichia coli [3]) [µg/mL] | CLint scaled at 0.5 h (in vitro) [mL/min/kg] | solubility (physchem [4]) [µg/mL] | logD [5]
CCNc1cc(F)cc2c1[nH]c1ncc(-c3cnc(OC4CNC4)nc3)c(-n3ccc(C(F)(F)F)n3)c12 | 8.62 | 0.63 (≈ 1.23 µM) | 1 (≈ 1.95 µM) | – | – | –
CCNc1cc(F)cc2c1[nH]c1ncc(-c3cnc(N4CCNCC4)nc3)c(-n3ccc(C(F)(F)F)n3)c12 | 8.6 | 0.31 (≈ 0.59 µM) | 1 (≈ 1.9 µM) | 61.4 | < 1 | –
CCNc1cc(F)cc2c1[nH]c1ncc(-c3cnc(C(=O)O)nc3)c(-n3ccc(C(F)(F)F)n3)c12 | – | 4 (≈ 8.24 µM) | 16 (≈ 33 µM) | – | – | –
CCNc1cc(F)cc2c1[nH]c1ncc(-c3cncc(C#N)c3)c(-n3ncc4c3CCNC4)c12 | – | – | 4 (≈ 8.84 µM) | 52.1 | 200 (≈ 442 µM) | –
CCNc1cc(F)cc2c1[nH]c1ncc(-c3cnc(OC)nc3)c(-n3ccc(C(F)(F)F)n3)c12 | – | < 0.016 | 0.5 (≈ 1.06 µM) | 20.2 | < 1 | –
CCNc1cc(F)cc2c1[nH]c1ncc(-c3cncc(C#N)c3)c(-n3cnc(C(F)(F)F)c3)c12 | – | 0.25 (≈ 0.537 µM) | > 16 | – | – | –
CCNc1cc(F)cc2c1[nH]c1ncc(-c3cnc(NC4CCNC4)nc3)c(-n3ccc(C(F)(F)F)n3)c12 (stereo not drawn) | 9.55 | 0.25 (≈ 0.476 µM) | 2 (≈ 3.81 µM) | 60.1 | 8.3 (≈ 15.8 µM) | –
CCNc1cc(F)cc2c1[nH]c1ncc(-c3cncc(Cc4n[nH]c(=O)o4)c3)c(-n3ccc(C(F)(F)F)n3)c12 | – | < 0.056 | 0.73 (≈ 1.36 µM) | – | – | 3.38
CCNc1cc(F)cc2c1[nH]c1ncc(-c3cncc(C#N)c3)c(-n3ccc(C(=O)O)n3)c12 | – | > 16 | > 16 | – | – | –
CCNc1cc(F)cc2c1[nH]c1ncc(-c3cnc(OC4CCNCC4)nc3)c(-n3ccc(C(F)(F)F)n3)c12 | 9.06 | 0.63 (≈ 1.17 µM) | 1 (≈ 1.85 µM) | – | – | –
CCNc1cc(F)cc2c1[nH]c1ncc(-c3cncc(C#N)c3)c(-n3ccc(CN)n3)c12 | – | 2 (≈ 4.69 µM) | 16 (≈ 37.5 µM) | – | – | –
CCNc1cc(F)cc2c1[nH]c1ncc(-c3cncc(C#N)c3)c(-n3ccc(C(C)C)n3)c12 | – | < 0.25 | > 16 | – | < 0.7 | –
CCNc1cc(F)cc2c1[nH]c1ncc(-c3cncc(CC(N)=O)c3)c(-n3ccc(C(F)(F)F)n3)c12 | – | < 0.125 | 1 (≈ 2.01 µM) | – | – | 3.1
CCNc1cc(F)cc2c1[nH]c1ncc(-c3cncc(C#N)c3)c(-n3nc(C(F)(F)F)cc3CO)c12 | – | – | > 16 | – | – | –
CCNc1cc(F)cc2c1[nH]c1ncc(-c3cnc(N)nc3)c(-n3ccc(C(F)(F)F)n3)c12 | 4.39 | 0.63 (≈ 1.38 µM) | 1 (≈ 2.19 µM) | 25.9 | 7.6 (≈ 16.7 µM) | –
CCNc1cc(F)cc2c1[nH]c1ncc(-c3cncc(C#N)c3)c(-n3ccc(C#N)n3)c12 | – | < 0.016 | 0.125 (≈ 0.296 µM) | – | < 1 | –
CCNc1cc(F)cc2c1[nH]c1ncc(-c3cncc(C#N)c3)c(-n3cc(C(=O)O)c(C(F)(F)F)n3)c12 | – | – | > 16 | – | – | –
CCNc1cc(F)cc2c1[nH]c1ncc(-c3cncc(C#N)c3)c(-n3ccc(C(C)(C)C)n3)c12 | – | < 0.25 | > 16 | – | < 0.3 | –
CCNc1cc(F)cc2c1[nH]c1ncc(-c3cncc(C#N)c3)c(-n3cc4c(n3)CNC4)c12 | – | – | 4 (≈ 9.12 µM) | – | – | –
CCNc1cc(F)cc2c1[nH]c1ncc(-c3cnc(NC)nc3)c(-n3ccc(C(F)(F)F)n3)c12 | – | < 0.016 | 0.25 (≈ 0.531 µM) | 53.1 | < 1 | –
CCNc1cc(F)cc2c1[nH]c1ncc(-c3cnc(C(=O)NC)nc3)c(-n3ccc(C(F)(F)F)n3)c12 | – | < 0.25 | < 0.25 | – | – | –
CCNc1cc(F)cc2c1[nH]c1ncc(-c3cncc(C#N)c3)c(-n3cc(C(N)=O)c(C(F)(F)F)n3)c12 | – | – | > 16 | – | – | –
CCNc1cc(F)cc2c1[nH]c1ncc(-c3cncc(C#N)c3)c(-n3ccc(C(F)F)n3)c12 | – | < 0.25 | 1 (≈ 2.24 µM) | – | < 1 | –
CCNc1cc(F)cc2c1[nH]c1ncc(-c3cncc(N4CCNCC4)c3)c(-n3ccc(C(F)(F)F)n3)c12 | – | 0.5 (≈ 0.953 µM) | 8 (≈ 15.3 µM) | – | – | 2.8
CCNc1cc(F)cc2c1[nH]c1ncc(-c3cncc(C(=N)NC)c3)c(-n3ccc(C(F)(F)F)n3)c12 | – | 0.5 (≈ 1.01 µM) | 8 (≈ 16.1 µM) | – | – | 2.28
CCNc1cc(F)cc2c1[nH]c1ncc(-c3cncc(C#N)c3)c(-n3cc(C(F)(F)F)cn3)c12 | – | < 0.016 | 1 (≈ 2.15 µM) | – | < 1 | –
CCNc1cc(F)cc2c1[nH]c1ncc(-c3cnc(OCC)nc3)c(-n3ccc(C(F)(F)F)n3)c12 | – | < 0.016 | 2 (≈ 4.12 µM) | 37 | < 0.3 | –
CCNc1cc(F)cc2c1[nH]c1ncc(-c3cncc(C#N)c3)c(-c3cccc(C(F)(F)F)c3)c12 | – | 0.063 (≈ 0.133 µM) | > 16 | – | – | –

The next lines start with the values.

pKa (physchem [1]) | MIC (Escherichia coli [2]) [µg/mL] | MIC (Escherichia coli [3]) [µg/mL] | CLint scaled at 0.5 h (in vitro) [mL/min/kg] | solubility (physchem [4]) [µg/mL] | logD [5] | Structure (SMILES)
9.35 | < 0.25 | 4 (≈ 7.82 µM) | – | – | – | CCNc1cc(F)cc2c1[nH]c1ncc(-c3cnc(NC4CNC4)nc3)c(-n3ccc(C(F)(F)F)n3)c12
– | < 0.25 | 1 (≈ 2.35 µM) | – | < 0.3 | – | CCNc1cc(F)cc2c1[nH]c1ncc(-c3cncc(C#N)c3)c(-n3ccc(CC)n3)c12
– | < 0.016 | 0.375 (≈ 0.714 µM) | 43.8 | 67 (≈ 128 µM) | – | CCNc1cc(F)cc2c1[nH]c1ncc(-c3cnc(C4(C(=O)O)CC4)nc3)c(-n3ccc(C(F)(F)F)n3)c12
– | < 0.057 | 2.83 (≈ 5.44 µM) | – | – | 3.62 | CCNc1cc(F)cc2c1[nH]c1ncc(-c3cncc(Cc4ncc[nH]4)c3)c(-n3ccc(C(F)(F)F)n3)c12
– | < 0.25 | 0.5 (≈ 1.03 µM) | 52.8 | < 0.2 | – | CCNc1cc(F)cc2c1[nH]c1ncc(-c3cnc([C@H](C)O)nc3)c(-n3ccc(C(F)(F)F)n3)c12
– | < 0.016 | 1 (≈ 1.9 µM) | 24.2 | < 1 | – | CCNc1cc(F)cc2c1[nH]c1ncc(-c3cnc(N4CCOCC4)nc3)c(-n3ccc(C(F)(F)F)n3)c12
– | < 0.016 | 0.75 (≈ 1.47 µM) | 22.9 | 148 (≈ 289 µM) | – | CNc1cc(F)cc2c1[nH]c1ncc(-c3cnc(C4(C(=O)O)CC4)nc3)c(-n3ccc(C(F)(F)F)n3)c12
– | < 0.25 | 2 (≈ 4.86 µM) | – | < 1 | – | CCNc1cc(F)cc2c1[nH]c1ncc(-c3cncc(C#N)c3)c(-n3ccc(C)n3)c12
– | – | 2 (≈ 3.72 µM) | – | – | – | CCNc1cc(F)cc2c1[nH]c1ncc(-c3cncc(C#N)c3)c(-n3cc(C(=O)OCC)c(C(F)(F)F)n3)c12
– | < 0.056 | 0.71 (≈ 1.36 µM) | – | – | 3.66 | CCNc1cc(F)cc2c1[nH]c1ncc(-c3cncc(Cc4ncco4)c3)c(-n3ccc(C(F)(F)F)n3)c12
– | < 0.25 | < 0.25 | 55.5 | < 0.2 | – | CCNc1cc(F)cc2c1[nH]c1ncc(-c3cnc(C(N)=O)nc3)c(-n3ccc(C(F)(F)F)n3)c12
– | < 0.125 | 2 (≈ 4 µM) | – | – | 3.05 | CCNc1cc(F)cc2c1[nH]c1ncc(-c3cncc(C(=O)NO)c3)c(-n3ccc(C(F)(F)F)n3)c12
– | < 0.016 | 0.5 (≈ 1.1 µM) | – | – | – | CCNc1cc(F)cc2c1[nH]c1ncc(-c3cnc(C)nc3)c(-n3ccc(C(F)(F)F)n3)c12
9.52 | 0.63 (≈ 1.17 µM) | 1 (≈ 1.85 µM) | 57.9 | 7.6 (≈ 14.1 µM) | – | CCNc1cc(F)cc2c1[nH]c1ncc(-c3cnc(NC4CCNCC4)nc3)c(-n3ccc(C(F)(F)F)n3)c12
2.02 | 0.125 (≈ 0.303 µM) | 8 (≈ 19.4 µM) | – | – | – | CCNc1cc(F)cc2c1[nH]c1ncc(-c3cncc(C#N)c3)c(-n3ccc(N)n3)c12
– | – | 2 (≈ 4.42 µM) | 20.2 | – | – | CCNc1cc(F)cc2c1[nH]c1ncc(-c3cncc(C#N)c3)c(-n3ncc4c3CNCC4)c12
– | < 0.016 | 2 (≈ 3.59 µM) | 43.5 | < 1 | – | CCNc1cc(F)cc2c1[nH]c1ncc(-c3cnc(OCC(C)(C)C(=O)O)nc3)c(-n3ccc(C(F)(F)F)n3)c12
– | – | 8 (≈ 16.7 µM) | – | – | – | CCNc1cc(F)cc2c1[nH]c1ncc(-c3cncc(C#N)c3)c(-n3nc(C(F)(F)F)cc3C)c12
– | < 0.25 | 1 (≈ 2 µM) | 58.7 | < 1 | – | CCNc1cc(F)cc2c1[nH]c1ncc(-c3cnc(C(C)(C)O)nc3)c(-n3ccc(C(F)(F)F)n3)c12
– | < 0.016 | 4 (≈ 7.21 µM) | – | 133 (≈ 240 µM) | – | CCNc1cc(F)cc2c1[nH]c1ncc(-c3cnc(NCC4(C(=O)O)CC4)nc3)c(-n3ccc(C(F)(F)F)n3)c12
– | < 0.25 | 0.5 (≈ 1.01 µM) | – | – | 3.42 | CCNc1cc(F)cc2c1[nH]c1ncc(-c3cncc(C(=O)NC)c3)c(-n3ccc(C(F)(F)F)n3)c12
– | < 0.016 | 0.5 (≈ 1.04 µM) | – | < 1 | – | CCNc1cc(F)cc2c1[nH]c1ncc(-c3cncc(C#N)c3)c(-c3nc(C(F)(F)F)cs3)c12
– | – | 4 (≈ 8.07 µM) | – | – | – | CCNc1cc(F)cc2c1[nH]c1ncc(-c3cncc(C#N)c3)c(-n3cc(CO)c(C(F)(F)F)n3)c12
– | < 0.125 | 0.5 (≈ 0.974 µM) | – | – | 3.41 | CCNc1cc(F)cc2c1[nH]c1ncc(-c3cncc(C(=O)NOC)c3)c(-n3ccc(C(F)(F)F)n3)c12
– | – | 2 (≈ 4.09 µM) | – | < 1 | – | CCNc1cc(F)cc2c1[nH]c1ncc(-c3cncc(C#N)c3)c(-n3nc(C(F)F)c4c3CNC4)c12
– | < 0.125 | 1 (≈ 1.77 µM) | – | – | 2.54 | CCNc1cc(F)cc2c1[nH]c1ncc(-c3cnc4c(c3)c(=O)c(C(=O)O)cn4C)c(-n3ccc(C(F)(F)F)n3)c12
– | < 0.25 | 1 (≈ 1.9 µM) | – | – | 3.64 | CCNc1cc(F)cc2c1[nH]c1ncc(-c3cncc(N4CCOCC4)c3)c(-n3ccc(C(F)(F)F)n3)c12
– | < 0.25 | 0.5 (≈ 1.03 µM) | 57.2 | < 1 | – | CCNc1cc(F)cc2c1[nH]c1ncc(-c3cnc([C@@H](C)O)nc3)c(-n3ccc(C(F)(F)F)n3)c12
– | < 0.016 | 1 (≈ 2 µM) | 44 | 9 (≈ 18 µM) | – | CCNc1cc(F)cc2c1[nH]c1ncc(-c3cnc(CC(=O)O)nc3)c(-n3ccc(C(F)(F)F)n3)c12
